The results in this text go back to BindingDB's records for doi:10.1021/jm500588w (Sanofi R & D, 2014).

The nature of this assay: Antagonist activity at P2Y12 receptor in human platelet rich plasma assessed as inhibition of ADP-induced aggregation.
Broadly, the IC50 is the concentration needed to halve the response being measured. `CCCC(=O)c1cnn(-c2ccc(NC(=O)c3cn(CC(=O)N4CCN(C)CC4)c4ccc(OC)cc34)cc2)c1C`: the half-maximal inhibitory concentration (IC50) is 400 nM. As for `CCCC(=O)c1cnn(-c2ccc(NC(=O)c3cn(CC(=O)N4CCN(C)CC4)c4ccc(Cl)cc34)cc2)c1C`, the figure is 500 nM; as for `CCCC(=O)c1cnn(-c2ccc(NC(=O)c3cn(CC(=O)N4CCN(C)CC4)c4cc(F)c(Cl)cc34)cc2)c1C`, 500 nM; as for `CCCC(=O)c1cnn(-c2ccc(NC(=O)c3cn(CC(=O)N4CCN(C)CC4)c4cc(C)c(Br)cc34)cc2)c1C`, 1100 nM. The result for `CCCC(=O)c1cnn(-c2ccc(NC(=O)c3cn(CC(=O)N4CCN(C)CC4)c4ccc(C(F)(F)F)cc34)cc2)c1C` reads 700 nM; that for `CCCC(=O)c1cnn(-c2ccc(NC(=O)c3cn(CC(=O)N4CCN(C)CC4)c4cc(C)c(Cl)cc34)cc2)c1C`, 500 nM.

For the compound `CCCC(=O)c1cnn(-c2ccc(N(C)C(=O)c3cn(CC(=O)O)c4ccc(C)cc34)cc2)c1C`, the IC50 is > 30000 nM.

Consider `CCCC(=O)c1cnn(-c2ccc(NC(=O)c3cn(CC(=O)N4CCN(C)CC4)c4ccc(C)cc34)cc2)c1C`, for which the IC50 came to 500 nM. The result for `CCCC(=O)c1cnn(-c2ccc(NC(=O)c3cn(CC(=O)N4CCN(CCOC)CC4)c4ccc(Cl)cc34)cc2)c1C` reads 300 nM; that for `CCCC(=O)c1cnn(-c2ccc(NC(=O)c3cn(CC(=O)N4CCN(Cc5cc(C)on5)CC4)c4ccc(Cl)cc34)cc2)c1C`, 300 nM; that for `CCCC(=O)c1cnn(-c2ccc(NC(=O)c3cn(CC(=O)N4CCN5CCN(C)C(=O)C5C4)c4ccc(Cl)cc34)cc2)c1C` (configuration not stated), 300 nM. Consider `CCCC(=O)c1cnn(-c2ccc(NC(=O)c3cn(CC(=O)N4CCN(CCO)CC4)c4ccc(Cl)cc34)cc2)c1C`, for which the IC50 was determined as 300 nM. As for `CCCC(=O)c1cnn(-c2ccc(NC(=O)c3cn(CC(=O)N4CCN(CC(=O)N(C)C)CC4)c4ccc(Cl)cc34)cc2)c1C`, the 50% inhibitory concentration (IC50) was found to be 400 nM. As for `CCCC(=O)c1cnn(-c2ccc(NC(=O)c3cn(CCC(=O)O)c4ccc(C)cc34)cc2)c1C`, the figure is 4000 nM. As for `CCCC(=O)c1cnn(-c2ccc(NC(=O)c3cn(CC(=O)O)c4ccc(C)cc34)cc2)c1C`, the figure is 1800 nM.

`CCOC(=O)c1c(C)nn(-c2ccc(C(=O)NCc3ccccc3OC)cc2)c1C`: the IC50 was 16800 nM. `CCCC(=O)c1cnn(-c2ccc(NC(=O)c3cn(CC(=O)O)c4ccc(C)c(C)c34)cc2)c1C`: the IC50 is > 30000 nM. As for `CCOC(=O)c1c(C)nn(-c2ccc(NC(=O)Nc3ccc(Cl)cc3)cc2)c1C`, the figure is 4500 nM; as for `CCCC(=O)c1cnn(-c2ccc(NC(=O)c3cn(CC(=O)O)c4cc(C)c(C)cc34)cc2)c1C`, 400 nM. The result for `CCCC(=O)c1cnn(-c2ccc(NC(=O)c3c(C)n(CC(=O)O)c4ccc(C)cc34)cc2)c1C` reads 15000 nM; that for `CCCC(=O)c1cnn(-c2ccc(NC(=O)n3cc(CCCC(=O)O)c4ccc(C)cc43)cc2)c1C`, > 30000 nM; that for `CCCC(=O)c1cnn(-c2ccc(NC(=O)c3cn(CC(=O)N4CCN(C)CC4)c4cc(C)c(C)cc34)cc2)c1C`, 500 nM. As for `CCCC(=O)c1cnn(-c2ccc(NC(=O)c3cn(CCCC(=O)O)c4ccc(C)cc34)cc2)c1C`, the figure is 20000 nM; as for `CCOC(=O)c1c(C)nn(-c2ccc(NC(=O)Nc3ccccc3OCCCC(=O)O)cc2)c1C`, 13000 nM; as for `CCCC(=O)c1cnn(-c2ccc(NC(=O)c3cn(CC(=O)OC)c4ccc(C)cc34)cc2)c1C`, 4100 nM.

For `CCCC(=O)c1cnn(-c2ccc(NC(=O)Nc3cc(C)ccc3OCCCC(=O)O)cc2)c1C`, the concentration for half-maximal inhibition (IC50) is > 30000 nM. For the compound `CCCC(=O)c1cnn(-c2ccc(NC(=O)c3cn(CC(=O)N(C)C)c4cc(C)c(C)cc34)cc2)c1C`, the half-maximal inhibitory concentration (IC50) stood at 800 nM.
